Source: doi:10.1101/2025.01.28.635346v1 (bioRxiv, 2025)
pEC50, pIC50: −log10 of the molar value. Bridge positions count the residues as written; N and C are the ends. Side chains are listed from the residue outwards. Peptide text beside a SMILES is read from it. * marks the point of attachment. Butanoyl(4-(4-I-phenyl)) = O=C(CCCc1ccc(I)cc1)*; PEG2 = NCCOCCOCCC(=O)O

Legend:
[1] = target: T1, CCKAR (Homo sapiens, UniProt P32238); experiment: Safetyscan47 GPCR Calcium Flux, Antagonist; type: cell-based; conditions: for Emax: read-out: Max Response
T1 sequence (P32238 1-428): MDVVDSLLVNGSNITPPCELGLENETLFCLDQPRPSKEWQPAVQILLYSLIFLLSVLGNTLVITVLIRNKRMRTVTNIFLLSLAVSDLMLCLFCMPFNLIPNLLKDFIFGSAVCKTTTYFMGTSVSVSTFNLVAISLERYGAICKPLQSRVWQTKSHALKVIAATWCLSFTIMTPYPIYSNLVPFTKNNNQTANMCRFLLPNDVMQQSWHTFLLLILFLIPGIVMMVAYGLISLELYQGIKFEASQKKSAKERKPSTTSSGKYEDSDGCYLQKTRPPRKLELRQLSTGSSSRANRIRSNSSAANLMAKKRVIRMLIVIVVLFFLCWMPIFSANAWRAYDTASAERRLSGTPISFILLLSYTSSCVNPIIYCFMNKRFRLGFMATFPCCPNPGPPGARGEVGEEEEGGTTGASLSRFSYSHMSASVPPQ

[2] = target: NET (Homo sapiens, UniProt P23975); experiment: Safetyscan47 Transporter, Blocker; type: cell-based; conditions: for Emax: read-out: Max Response
[3] = target: CNR1 (Homo sapiens, UniProt P21554); experiment: Safetyscan47 GPCR cAMP, Agonist; type: cell-based; conditions: for Emax: read-out: Max Response
[4] = target: KvLQT1/minK (Homo sapiens, UniProt P15382+P51787); experiment: Safetyscan47 Ion Channel, Blocker; type: cell-based; conditions: for Emax: read-out: Max Response
[5] = target: OPRD1 (Homo sapiens, UniProt P41143); experiment: Safetyscan47 GPCR cAMP, Agonist; type: cell-based; conditions: for Emax: read-out: Max Response
[6] = target: T1, CCKAR; experiment: Safetyscan47 GPCR Calcium Flux, Agonist; type: cell-based; conditions: for Emax: read-out: Max Response
[7] = target: carboxypeptidase Y (Saccharomyces cerevisiae, UniProt P00729); experiment: Proteolysis test, carboxypeptidase Y treatment for 4 h, HPLC; type: in vitro ADME
[8] = target: HTR1B (Homo sapiens, UniProt P28222); experiment: Safetyscan47 GPCR cAMP, Antagonist; type: cell-based; conditions: for Emax: read-out: Max Response
[9] = target: T2, CHRM2 (Homo sapiens, UniProt P08172); experiment: Safetyscan47 GPCR cAMP, Agonist; type: cell-based; conditions: for Emax: read-out: Max Response
T2 sequence (P08172 1-466): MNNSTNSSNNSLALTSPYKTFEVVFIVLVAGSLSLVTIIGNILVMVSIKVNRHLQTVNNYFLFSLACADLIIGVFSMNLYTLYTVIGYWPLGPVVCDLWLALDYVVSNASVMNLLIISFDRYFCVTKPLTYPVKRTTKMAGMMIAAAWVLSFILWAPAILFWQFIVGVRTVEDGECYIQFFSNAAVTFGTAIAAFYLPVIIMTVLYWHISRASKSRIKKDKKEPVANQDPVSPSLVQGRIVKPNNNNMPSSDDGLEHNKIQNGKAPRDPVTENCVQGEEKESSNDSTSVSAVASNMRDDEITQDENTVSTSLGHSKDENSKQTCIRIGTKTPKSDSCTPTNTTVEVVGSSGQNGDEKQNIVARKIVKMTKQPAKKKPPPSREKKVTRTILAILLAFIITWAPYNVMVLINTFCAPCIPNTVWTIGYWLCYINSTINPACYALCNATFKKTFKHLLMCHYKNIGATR

[10] = target: CAV1.2 (Homo sapiens, UniProt Q13936); experiment: Safetyscan47 Ion Channel, Blocker; type: cell-based
[11] = target: T3, HTR3A (Homo sapiens, UniProt P46098); experiment: Safetyscan47 Ion Channel, Blocker; type: cell-based; conditions: for Emax: read-out: Max Response
T3 sequence (P46098 24-478): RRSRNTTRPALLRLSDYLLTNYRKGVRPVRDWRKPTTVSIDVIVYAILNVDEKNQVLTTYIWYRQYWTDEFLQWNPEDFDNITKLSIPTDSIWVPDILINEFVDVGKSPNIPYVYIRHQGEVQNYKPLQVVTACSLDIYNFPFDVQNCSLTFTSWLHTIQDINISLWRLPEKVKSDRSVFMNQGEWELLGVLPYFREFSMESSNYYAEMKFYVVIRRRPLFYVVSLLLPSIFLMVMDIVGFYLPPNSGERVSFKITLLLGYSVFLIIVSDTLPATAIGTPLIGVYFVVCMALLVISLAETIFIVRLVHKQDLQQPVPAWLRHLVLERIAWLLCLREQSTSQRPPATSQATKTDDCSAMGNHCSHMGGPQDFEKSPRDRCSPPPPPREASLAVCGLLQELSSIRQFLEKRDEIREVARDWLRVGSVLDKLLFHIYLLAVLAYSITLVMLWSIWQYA

[12] = Pharmacokinetics in female Sprague-Dawley rats; type: in vivo, rat
[13] = Solubility and aggregation; type: physicochemical
[14] = female, Sprague-Dawley, rat, plasma, 30 mg/kg
[15] = female, Sprague-Dawley, rat, plasma, iv, 30 mg/kg

Chain of CNR1 (P21554 whole entry): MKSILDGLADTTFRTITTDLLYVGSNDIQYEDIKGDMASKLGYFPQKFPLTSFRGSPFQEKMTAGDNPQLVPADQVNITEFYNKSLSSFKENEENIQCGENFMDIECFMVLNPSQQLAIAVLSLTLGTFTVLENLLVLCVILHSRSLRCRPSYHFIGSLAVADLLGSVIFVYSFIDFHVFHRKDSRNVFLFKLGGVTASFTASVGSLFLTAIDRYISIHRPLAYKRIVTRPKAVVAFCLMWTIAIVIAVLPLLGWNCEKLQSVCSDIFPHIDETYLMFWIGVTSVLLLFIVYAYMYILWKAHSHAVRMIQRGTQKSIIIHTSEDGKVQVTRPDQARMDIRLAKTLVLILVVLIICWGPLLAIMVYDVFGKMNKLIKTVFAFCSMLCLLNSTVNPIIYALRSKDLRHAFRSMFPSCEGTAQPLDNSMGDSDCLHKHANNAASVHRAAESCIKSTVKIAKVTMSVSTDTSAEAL
Chain of OPRD1 (P41143 whole entry): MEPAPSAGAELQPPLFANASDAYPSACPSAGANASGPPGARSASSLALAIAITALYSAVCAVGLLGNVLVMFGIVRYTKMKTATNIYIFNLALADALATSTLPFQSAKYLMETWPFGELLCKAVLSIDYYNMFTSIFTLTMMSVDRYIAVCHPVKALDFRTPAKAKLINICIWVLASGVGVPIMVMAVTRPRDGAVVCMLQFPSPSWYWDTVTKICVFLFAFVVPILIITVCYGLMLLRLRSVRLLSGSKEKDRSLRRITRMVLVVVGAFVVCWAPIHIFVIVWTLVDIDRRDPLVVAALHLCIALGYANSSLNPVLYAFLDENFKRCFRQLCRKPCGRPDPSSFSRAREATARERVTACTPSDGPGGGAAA
Chain of HTR1B (P28222 whole entry): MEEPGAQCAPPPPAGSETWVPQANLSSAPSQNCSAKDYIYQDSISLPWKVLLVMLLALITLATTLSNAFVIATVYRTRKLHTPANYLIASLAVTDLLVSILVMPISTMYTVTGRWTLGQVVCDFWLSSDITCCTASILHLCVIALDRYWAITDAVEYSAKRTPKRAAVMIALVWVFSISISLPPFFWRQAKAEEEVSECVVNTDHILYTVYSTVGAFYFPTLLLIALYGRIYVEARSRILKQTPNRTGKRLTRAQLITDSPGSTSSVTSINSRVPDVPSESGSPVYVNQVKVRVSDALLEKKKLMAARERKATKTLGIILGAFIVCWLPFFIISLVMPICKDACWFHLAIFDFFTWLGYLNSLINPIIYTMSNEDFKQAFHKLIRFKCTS
Chain of NET (P23975 whole entry): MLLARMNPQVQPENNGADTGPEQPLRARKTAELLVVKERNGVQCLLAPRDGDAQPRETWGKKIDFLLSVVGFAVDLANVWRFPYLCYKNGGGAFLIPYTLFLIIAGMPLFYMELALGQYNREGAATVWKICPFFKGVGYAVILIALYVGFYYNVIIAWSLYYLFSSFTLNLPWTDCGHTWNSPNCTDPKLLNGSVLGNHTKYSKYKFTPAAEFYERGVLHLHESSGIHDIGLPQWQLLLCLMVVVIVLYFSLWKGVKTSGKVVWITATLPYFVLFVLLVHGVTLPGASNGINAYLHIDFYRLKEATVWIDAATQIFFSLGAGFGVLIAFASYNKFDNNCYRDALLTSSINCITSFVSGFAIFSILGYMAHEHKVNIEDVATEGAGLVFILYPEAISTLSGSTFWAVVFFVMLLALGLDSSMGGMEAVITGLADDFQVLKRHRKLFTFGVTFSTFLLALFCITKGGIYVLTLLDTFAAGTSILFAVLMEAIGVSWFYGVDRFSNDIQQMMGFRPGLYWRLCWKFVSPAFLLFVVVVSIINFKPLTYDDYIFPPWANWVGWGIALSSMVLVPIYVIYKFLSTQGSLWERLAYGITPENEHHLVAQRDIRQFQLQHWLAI
Chain of KvLQT1/minK (P51787 whole entry): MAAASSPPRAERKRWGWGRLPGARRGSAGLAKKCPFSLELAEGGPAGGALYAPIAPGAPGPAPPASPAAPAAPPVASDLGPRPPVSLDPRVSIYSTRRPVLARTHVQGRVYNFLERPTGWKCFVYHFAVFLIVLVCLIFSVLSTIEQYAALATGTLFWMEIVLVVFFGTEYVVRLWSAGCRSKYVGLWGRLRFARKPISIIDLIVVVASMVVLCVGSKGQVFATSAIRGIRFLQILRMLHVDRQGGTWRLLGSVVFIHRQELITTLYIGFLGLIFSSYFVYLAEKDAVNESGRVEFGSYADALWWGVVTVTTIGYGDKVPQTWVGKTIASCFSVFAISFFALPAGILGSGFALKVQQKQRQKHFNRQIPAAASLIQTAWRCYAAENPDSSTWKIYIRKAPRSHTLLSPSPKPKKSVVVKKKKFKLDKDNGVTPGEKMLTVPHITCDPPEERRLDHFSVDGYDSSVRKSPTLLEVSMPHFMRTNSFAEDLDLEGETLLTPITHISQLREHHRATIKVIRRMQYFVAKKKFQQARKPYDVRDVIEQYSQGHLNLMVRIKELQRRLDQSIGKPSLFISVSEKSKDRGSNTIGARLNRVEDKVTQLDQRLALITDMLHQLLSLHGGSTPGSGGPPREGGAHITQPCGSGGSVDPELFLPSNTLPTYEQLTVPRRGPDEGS
Chain of carboxypeptidase Y (P00729 112-532, species assumed): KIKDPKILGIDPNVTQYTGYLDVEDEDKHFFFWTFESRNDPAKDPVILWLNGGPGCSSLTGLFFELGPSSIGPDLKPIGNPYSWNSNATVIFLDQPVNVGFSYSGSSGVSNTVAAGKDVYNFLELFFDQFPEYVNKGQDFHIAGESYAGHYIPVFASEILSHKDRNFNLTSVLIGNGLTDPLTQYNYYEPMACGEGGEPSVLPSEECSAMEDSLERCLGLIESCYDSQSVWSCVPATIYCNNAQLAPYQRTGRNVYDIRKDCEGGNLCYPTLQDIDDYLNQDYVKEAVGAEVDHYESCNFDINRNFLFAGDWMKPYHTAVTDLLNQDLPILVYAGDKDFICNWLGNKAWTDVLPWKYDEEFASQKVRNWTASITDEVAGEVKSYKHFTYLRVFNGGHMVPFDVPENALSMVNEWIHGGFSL

CC[C@H](C)[C@H](NC(=O)[C@H](CC(C)C)NC(=O)[C@H](CC(=O)O)NC(=O)CNC(=O)[C@H](CCCNC(=N)N)NC(=O)[C@@H](NC(=O)[C@H](Cc1ccccc1)NC(=O)[C@H](Cc1ccc(O)cc1)NC(=O)[C@@H]1CCC(=O)NCC(=O)NCC(=O)N[C@@H](CCCNC(=N)N)C(=O)NCC(=O)N[C@@H](Cc2c[nH]cn2)C(=O)N[C@@H](C(C)C)C(=O)N2CCC[C@H]2C(=O)N1)C(C)C)C(=O)N[C@@H](CO)C(=O)N[C@@H](Cc1ccccc1)C(=O)N[C@@H](Cc1ccc(O)cc1)C(=O)N[C@@H](CCCCN)C(=O)O [lassotide 36] (GGRGHVPEYFVRGDLISFYK-OH; lactam N-8)
pIC50 [1]: < 4.35
Emax [1]: 3.61%
pIC50 [2]: < 4.35
Emax [2]: 0.35%
pEC50 [3]: < 4.35
Emax [3]: 1.38%
pIC50 [4]: < 4.35
Emax [4]: 1.8%
pEC50 [5]: < 4.35
Emax [5]: 6.18%
pEC50 [6]: < 4.35
Emax [6]: 4.58%
change in HPLC trace after proteolysis [7]: little or no change
pIC50 [8]: < 4.35
Emax [8]: 0%
pEC50 [9]: < 4.35
Emax [9]: 7.71%
Emax [10]: 0%
pIC50 [10]: < 4.35
pIC50 [11]: < 4.35
Emax [11]: 8.73%

CC[C@H](C)[C@H](NC(=O)[C@H](CC(C)C)NC(=O)[C@H](CC(=O)O)NC(=O)CNC(=O)[C@H](CCCNC(=N)N)NC(=O)[C@@H](NC(=O)[C@H](Cc1ccccc1)NC(=O)[C@H](Cc1ccc(O)cc1)NC(=O)[C@@H]1CCC(=O)NCC(=O)NCC(=O)N[C@@H](CCCNC(=N)N)C(=O)NCC(=O)N[C@@H](Cc2c[nH]cn2)C(=O)N[C@@H](C(C)C)C(=O)N2CCC[C@H]2C(=O)N1)C(C)C)C(=O)N[C@@H](CO)C(=O)N[C@@H](Cc1ccccc1)C(=O)N[C@@H](Cc1ccc(O)cc1)C(=O)N[C@@H](CCCCNC(=O)CCOCCOCCNC(=O)CCCc1ccc(I)cc1)C(=O)O [lassotide 47] (GGRGHVPEYFVRGDLISFYK([PEG2-Butanoyl(4-(4-I-phenyl))])-OH; lactam N-8)
pIC50 [1]: < 4.35
Emax [1]: 3.35%
AUC(0-inf) [12, 14]: 2740 µg·h/mL
C0 [12, 14]: 441 µg/mL
Cmax [12, 14]: 369 µg/mL
AUC(0-t) [12, 15]: 2360 µg·h/mL
Tmax [12, 15]: 0.2 h
Vd [12, 15]: 0.1 L/kg
clearance [12, 15]: 0.2 mL/min/kg
half-life [12, 15]: 8.5 h
AUCINF ([12]; rat 30 mg/kg, animal 1M001): 2670 µg·h/mL
AUClast ([12]; rat 30 mg/kg, animal 1M001): 2310 µg·h/mL
C0 ([12]; rat 30 mg/kg, animal 1M001): 383 µg/mL
CL ([12]; rat 30 mg/kg, animal 1M001): 0.187 mL/min/kg
Cmax ([12]; rat 30 mg/kg, animal 1M001): 327 µg/mL
Vz ([12]; rat 30 mg/kg, animal 1M001): 0.133 L/kg
t1/2 ([12]; rat 30 mg/kg, animal 1M001): 8.2 h
AUCINF ([12]; rat 30 mg/kg, animal 1M002): 2370 µg·h/mL
AUClast ([12]; rat 30 mg/kg, animal 1M002): 2110 µg·h/mL
C0 ([12]; rat 30 mg/kg, animal 1M002): 370 µg/mL
CL ([12]; rat 30 mg/kg, animal 1M002): 0.211 mL/min/kg
Cmax ([12]; rat 30 mg/kg, animal 1M002): 336 µg/mL
Vz ([12]; rat 30 mg/kg, animal 1M002): 0.144 L/kg
t1/2 ([12]; rat 30 mg/kg, animal 1M002): 7.9 h
AUCINF ([12]; rat 30 mg/kg, animal 1M003): 3180 µg·h/mL
AUClast ([12]; rat 30 mg/kg, animal 1M003): 2650 µg·h/mL
C0 ([12]; rat 30 mg/kg, animal 1M003): 571 µg/mL
CL ([12]; rat 30 mg/kg, animal 1M003): 0.157 mL/min/kg
Cmax ([12]; rat 30 mg/kg, animal 1M003): 443 µg/mL
Vz ([12]; rat 30 mg/kg, animal 1M003): 0.127 L/kg
t1/2 ([12]; rat 30 mg/kg, animal 1M003): 9.3 h
pIC50 [2]: < 4.35
Emax [2]: 0%
pEC50 [3]: < 4.35
Emax [3]: 29.1%
pIC50 [4]: < 4.35
Emax [4]: 24.8%
Solubility in DMSO ([13]; DMSO (text: also formulations containing 10-20% DMSO and PEG)): > 200 mg/mL
solubility ([13]; acetate buffer, pH 4.5, aqueous buffer): ≥ 30 mg/mL
pEC50 [5]: < 4.35
Emax [5]: 17.4%
pEC50 [6]: < 4.35
Emax [6]: 0%
change in HPLC trace after proteolysis [7]: little or no change
pIC50 [8]: < 4.35
Emax [8]: 0%
pEC50 [9]: < 4.35
Emax [9]: 32.7%
Emax [10]: 0%
pIC50 [10]: < 4.35
pIC50 [11]: < 4.35
Emax [11]: 9.38%
